Experiments:
[1] = system: liver; details: pretreatment, endotoxin challenge; cited from earlier work
[2] = system: non-diabetic donor leukocytes; experiment: Plasma exchange: diabetic patient plasma added to non-diabetic donor cellular fraction; type: cell-based, human; details: cellular fraction treated 1 hour before exchange; leukocytes isolated 4 hours post-exchange
Method: (A) Blood samples from a non-diabetic (N) and a type 2 diabetic patient were separated into plasma and cellular fractions (cellular F.) and mutually exchanged. Thus, plasma derived from the non-diabetic donor was added to the diabetic patient cellular fraction, and vice versa. Leukocytes were isolated at indicated time post-exchange, lysed and analyzed by immunoblotting. (B) Blood samples from a non-diabetic donor were treated with insulin (0.1 unit/ml) for the indicated time (lanes 1-7) or with endotoxin for 2 hours (lane 8) (C) Blood samples from a non-diabetic donor were untreated (UN) or treated for 1 hour with polymyxin (50 μg/ml) or CL-095 (30 μM). Endotoxin (Endo; 10 ng/ml) was next added to specified samples (lanes 2-4). Leukocytes were isolated 2 hours tater. […] Samples were analyzed as in (A).
For the plasma mixing experiments, the blood samples were sedimented at unit gravity for 1.5 hours. […] The leukocytes were subsequently isolated, lysed, and analyzed by immunoblotting.
Next, non-diabetic donor leukocytes and leukocytes from two type 2 diabetic patients were either untreated, or treated with either polymyxin or CLI-095 prior to the plasma/leukocytes exchange. As shown above, pS6K1, pIRS-1, and HIF-1α expression were all detected in non-diabetic donor leukocytes following exposure to diabetic patients plasma. […]

[3] = system: TLR4; experiment: Endotoxin/TLR4 signaling block in non-diabetic donor blood challenged with endotoxin in vitro; type: cell-based, human; details: 1 hour pretreatment, polymyxin 50 μg/ml or CLI-095; endotoxin 10 ng/ml 2 hours
Method: (§1) (A) Blood samples from a non-diabetic (N) and a type 2 diabetic patient were separated into plasma and cellular fractions (cellular F.) and mutually exchanged. Thus, plasma derived from the non-diabetic donor was added to the diabetic patient cellular fraction, and vice versa. Leukocytes were isolated at indicated time post-exchange, lysed and analyzed by immunoblotting. (B) Blood samples from a non-diabetic donor were treated with insulin (0.1 unit/ml) for the indicated time (lanes 1-7) or with endotoxin for 2 hours (lane 8) (C) Blood samples from a non-diabetic donor were untreated (UN) or treated for 1 hour with polymyxin (50 μg/ml) or CL-095 (30 μM). Endotoxin (Endo; 10 ng/ml) was next added to specified samples (lanes 2-4). Leukocytes were isolated 2 hours tater. (D and E) Blood samples obtained from a non-diabetic donor and two type 2 diabetic patients (identified as diabetic 1 and diabetic 2) were all separated into plasma and cellular fraction. The cellular fractions were either untreated (lane 4) or treated with polymyxin (lanes 5 and 8) or CLI-095 (lanes 6 and 9) for 1 hour. The samples shown in lanes 1-3 were not subjected to plasma exchange. (D) Plasma derived from diabetic 1 (lanes 4-6) or diabetic 2 (lanes 7-9) was added to the non-diabetic donor cellular fractions and (E) vice versa. The leukocytes were isolated at 4 hours post-exchange. Samples were analyzed as in (A).
(§2) Endotoxin (lipopolysaccharide from Escherichia coli 0111B4, Sigma, 10 ng/ml). Insulin (Humalog Mix 50/50; Lilly) was used at the indicated concentrations (0.05-1 unit/ml), Polymyxin (Invivogen, 50 μg/ml), CLI-095 (Invivogen; 3 μM), LY294002 (Cayman Chemical; 10 μM), Rapamycin (Tocris Bioscience; 100 nM), YC-1 (Sigma; 30 μM), Acriflavine (ACF; Sigma; 5 μM)
(§3) Human Subjects were enrolled in the study following the Institutional Review Board of Rutgers Robert Wood Johnson Medical School approval. Written informed consent was obtained from all participates prior to inclusion in the study. Blood was drawn into EDTA-containing tubes. To isolate leukocytes, lysis buffer (bicarbonate-buffered ammonium chloride solution, 0.826% NH4Cl, 0.1% KHCO3, 0.0037% Na4EDTA in H2O) was added at a ratio of 20:1 (lysis buffer/blood). Once the erythrocytes lysed, the samples were centrifuged for […] at 400×g. The leukocyte pellet was washed once with phosphate-buffered saline. The pellet was suspended in RIPA buffer (1% Triton X-100, 1% deoxycholic acid, 10 mM Tris-HCl, pH 7.2, 158 mM NaCl, 0.1% SDS, and 1 mM PMSF and complete protease inhibitor mixture (Roche Applied Science)). Lysates containing equal protein amounts were analyzed by immunoblotting. Where indicated, endotoxin, insulin, and/or inhibitors were added to the whole blood samples prior to leukocyte isolation.
To determine whether endotoxin is the component in diabetic patient plasma that regulates leukocyte activation, endotoxin/TLR4 signaling was blocked using two pharmacologic inhibitors, polymyxin and. CLI-095. Polymyxin is a natural polypeptide antibiotic that binds the lipid A moiety of endotoxin, and consequently interferes with endotoxin binding to TLR4. CLI-095, also known as TAK-242, is a specific TLR4 signaling inhibitor. As leukocytes express multiple Toll-like receptors (TLR) including TLR4, which binds endotoxin, TLR4 functions in the regulation of Akt/S6K1/mTOR axis is of interest.

[4] = system: human leukocytes; experiment: Ex vivo whole blood pretreated with inhibitors, then endotoxin; leukocyte Western blotting and ATP analyses; type: cell-based; details: for autophagy in endotoxin-treated leukocytes: FIG. 7B: LY 10 μM 30 min, RAPA 100 nM 2 hours, YC-1 30 μM 30 min, ACF 5 μM 2 hours, then endotoxin 10 ng/ml 2 hours; for endotoxin-induced AMPKα degradation (change in AMPKα expression) / endotoxin-induced autophagy (LC3-I/LC3-II) / endotoxin-induced decline in ATP levels / endotoxin-induced HIF-1α expression: whole blood treated 2 hours with inhibitor prior to endotoxin 10 ng/ml
Method: (A) Blood samples were treated with endotoxin (LPS; […]) for the indicated time. (B-D) Blood samples were untreated (control), treated for 2 hours with DMSO (vehicle), or the specified inhibitors prior to the addition of endotoxin (10 ng/ml). The inhibitors tested included: LY294002 (LY), Rapamycin (RAPA), YC-1, acriflavine (ACF), metformin (Met) and SRT1720 (SRT). Leukocytes were isolated at the indicated time post-endotoxin treatment and lysed. Lysates were subjected to Western blotting analyses, and where shown, ATP analyses. Details are provided in the supplement. (E) Proposed model for endotoxin-induced metabolic derangement in human leukocytes.
(§4) FIG. 7. provides the Toll-like receptor 4 signaling pathway in human leukocytes and the antagonistic effect of insulin. (A) Blood samples were treated with endotoxin (10 ng/ml) for the indicated time. (B) Blood samples were untreated (UN), or treated with DMSO (vehicle; 0.05%; 2 hours), LY294002 (LY; 10 μM; 30 min), rapamycin (RAPA; 100 nM, 2 ‘hours), YC-1 (30 μM; 30 min), or acriflavine (ACF; 5 μM; 2 hours). The samples shown in lanes 3-8 were subsequently treated with endotoxin (10 ng/ml) for 2 hours. (C) Blood samples were untreated (UN; lane 1), treated with endotoxin (10 ng/ml; lane 2) for 2 hours, or with insulin (1 unit/ml) for 2 hours (lane 3) or 1 hour (lane 4). The samples shown in lanes 5-9 were treated with endotoxin (10 ng/ml) plus insulin at the indicated concentration (1-0.05 unit/ml) for 2 hours, (D) Blood samples were treated with insulin (0.1 unit/ml) plus endotoxin (10ng/ml) for the indicated time, or with endotoxin alone (Endo, 10 ng/ml) for 2 hours. Leukocytes were isolated, lysed, and analyzed as described in FIG. 5. (E) Model describing the pattern of signaling indicators detected in leukocytes treated with endotoxin as compared to insulin.
To examine the signaling events linking endotoxin induced responses ex vivo with the altered metabolic/bioenergetic profile, the inventors examined the effect of pharmacological inhibitors implicated in the regulation of HIF-1α expression in other model systems. […] Furthermore, they indicate that distinct PI-3K effectors regulate HIF-1α stabilization and AMPKα degradation.
To examine the effect of metformin on human leukocytes bioenergetics, whole blood samples were pretreated with metformin ex vivo prior to the addition of endotoxin.
as §2, §3

[5] = diabetics treated with metformin; cited from earlier work
[6] = system: leukocytes; experiment: Insulin treatment of whole blood from non-diabetic individuals; leukocyte immunoblotting; type: cell-based, human; details: insulin alone 0.1 unit/ml
Method: as §1, §2, §3
To establish the nature of the circulating factor enriched, in plasma from diabetics, multiple candidates were considered. As leukocytes express insulin receptor and circulating insulin is high in many type 2 and treated type 1 diabetic patients, insulin was chosen as the primary candidate. However, the insulin-signaling pathway in leukocytes is poorly characterized.

[7] = system: endotoxin-treated leukocytes; experiment: Insulin plus endotoxin in the in vitro whole blood system; leukocyte immunoblotting; type: cell-based, human
Method: as §4, §2, §3
Following food intake, especially if high in fat, human leukocytes might be exposed to increases in both insulin and endotoxin. Therefore, the combined effects of insulin and endotoxin on leukocytes were examined using the in vitro whole blood system. […] Insulin at a dose as low as 0.1 unit/ml also delayed onset of pAkt and pS6K1 in endotoxin-treated leukocytes (FIG. 7D).

[8] = insulin 0.1 unit/ml plus endotoxin 10 ng/ml
[9] = insulin higher than 0.1 unit/ml plus endotoxin 10 ng/ml, 2 hours

Oc1ccc(C=Cc2cc(O)cc(O)c2)cc1 [Resveratrol, resveratrol]
HIF-1α expression in the liver [1]: prevents
Sirt1 degradation in the liver [1]: prevents
autophagy in the liver [1]: prevents

polymyxin
pS6K1, pIRS-1, and HIF-1α expression following exposure to diabetic patients plasma [2]: inhibited
HIF-1α expression upon challenge with endotoxin [3]: prevented
pIRS-1 upon challenge with endotoxin [3]: prevented
pS6K1 upon challenge with endotoxin [3]: prevented

OCc1ccc(-c2nn(Cc3ccccc3)c3ccccc23)o1 [YC-1, 3-(5′-hydroxymethyl-2′-furyl)-1-benzylindazole]
autophagy in endotoxin-treated leukocytes [4]: prevented
endotoxin-induced AMPKα degradation (change in AMPKα expression) [4]: did not prevent
endotoxin-induced autophagy (LC3-I/LC3-II) [4]: inhibited
endotoxin-induced decline in ATP levels [4]: inhibited

acriflavine
autophagy in endotoxin-treated leukocytes [4]: prevented
endotoxin-induced AMPKα degradation (change in AMPKα expression) [4]: did not prevent
endotoxin-induced autophagy (LC3-I/LC3-II) [4]: inhibited
endotoxin-induced decline in ATP levels [4]: inhibited

O=C(Nc1ccccc1-c1cn2c(CN3CCNCC3)csc2n1)c1cnc2ccccc2n1 [SRT1720]
endotoxin-induced AMPKα degradation (change in AMPKα expression) [4]: did not
endotoxin-induced HIF-1α expression [4]: block

CN(C)C(=N)N=C(N)N [metformin]
less cancer than diabetics treated with insulin [5]: 25-40%
AMPKα phosphorylation ([4]; metformin alone, no endotoxin): induced
AMPKα phosphorylation (Thr 172) ([4]; metformin pretreatment combined with endotoxin): induced
endotoxin-induced AMPKα degradation (change in AMPKα expression) [4]: prevents
endotoxin-induced HIF-1α expression [4]: prevents
endotoxin-induced AMPKα degradation (change in AMPKα expression) ([4]; listed as Metformin): inhibited
endotoxin-induced HIF-1α expression ([4]; listed as Metformin): inhibited

CCOC(=O)C1=CCCC[C@H]1S(=O)(=O)Nc1ccc(F)cc1Cl [CLI-095]
pS6K1, pIRS-1, and HIF-1α expression following exposure to diabetic patients plasma [2]: inhibited
HIF-1α expression upon challenge with endotoxin [3]: prevented
pIRS-1 upon challenge with endotoxin [3]: prevented
pS6K1 upon challenge with endotoxin [3]: prevented

insulin: Insulin (Humalog Mix 50/50; Lilly)
Raptor dephosphorylation [6]: failed to induce
increase in HIF-1α expression [6]: failed to induce
increase in autophagy [6]: failed to induce
pAkt [6]: triggered increases
pIRS-1 [6]: failed to induce
pS6K1 [6]: triggered increases
signaling pattern of leukocytes ([7]; endotoxin plus insulin at <0.1 unit/ml): the pattern observed in leukocytes treated with endotoxin alone
onset of pAkt [7, 8]: delayed onset
onset of pS6K1 [7, 8]: delayed onset
HIF-1α expression [7, 9]: suppressed
TLR4 expression [7, 9]: suppressed
autophagy [7, 9]: suppressed
dephosphorylation of Raptor [7, 9]: suppressed
pIRS-1 [7, 9]: suppressed

— patent US20140113306A1, “DIAGNOSTIC AND SCREENING METHODS FOR INFLAMMATION” (Rutgers, The State University of New Jersey, priority 2012, published 2014)
